Experiments:
Assay type in all cases: in vivo
[1] = tested on: Field Violet (Viola arvensis); experiment: Example 1 post-emergent turf plot test, violet; settings: 0.57 lb ai/acre
Protocol: The experimental design used randomized plots with post-emergent treatment and three replications per test trial. The size of each experimental plot was 4 feet by 6 feet. The application of each test composition was performed with pressurized back-pack sprayers, calibrated to spray 200 gallons per acre. Test compositions containing sulfentrazone (DISMISS™ Turf Herbicide), quniclorac, (FACET® 75 DF herbicide) or a mixture of sulfentrazone and quinclorac in a 1:3 ratio, prepared as described above, were diluted with water to provide the appropriate test rate concentrations.
The control of weeds was evaluated in each experimental plot from 7 to 41 days after treatment (DAT) of each test rate. The results, shown as an average of the replications, were compared with results observed in untreated control plots in the same trials.

[2] = tested on: Red River crabgrass (Digitaria ciliaris); experiment: Example 3 post-emergence greenhouse pot test, crabgrass
Protocol: Test compositions containing sulfentrazone (DISMISS™ Turf Herbicide), quniclorac, (DRIVE® 75 DF Herbicide) or mixture of sulfentrazone and quinclorac in a three to one ratio, prepared as described above, were diluted with water to provide the appropriate test rate concentrations. A nonionic surfactant (0.25%) was added to each test solution.
The test weeds include Red River crabgrass (Digitaria ciliaris) and yellow nutsedge (Cyperus esculentusi).
For post-emergence testing, three disposable 3 inch square pots for each rate of application of each herbicide were filled with a soil, comprised of peat moss, vermiculite, bark ash, pine bark, limestone and a wetting agent, to which 8 to 10 seeds were planted. The pots were placed in a greenhouse and watered daily, thus allowing the seeds to germinate and the foliage to develop.
(§1) Pots designated for treatment were placed on a conveyor belt and the conveyor belt fed under a spray nozzle mounted about ten inches above the foliage. The spray of herbicidal solution was commenced and once stabilized; the pots were passed under the spray at a speed to receive a coverage equivalent of 30 gallons per acre. The application rates are those shown in Table 3 below for the individual herbicidal solutions and the mixture of sulfentrazone and quinclorac. The post-emergence pots were immediately placed in the green-house and not watered until 24 hours after treatment with the test solution. Thereafter they were regularly watered at ground level. The control of weeds was evaluated in each experimental test from 1 to 22 days after treatment (DAT). The results, shown as an average of the replications, were compared with results observed in untreated control pots in the same tests.
(§2) Percent control was determined by a method similar to the 0 to 100 rating system disclosed in “Research Methods in Weed Science,” 2nd ed., B. Truelove, Ed.; Southern Weed Science Society; Auburn University, Auburn, Ala., 1977.

crabgrass (Digitaria sp) = experiment: Example 4 post-emergence greenhouse pot test, crabgrass; settings: 0.25 lb ai/acre
Protocol: (§3) Test compositions containing sulfentrazone (75 DF formulation), quniclorac, (DRIVE® 75 DF Herbicide) or mixtures of sulfentrazone and quinclorac at ratios of 1:1 to 1:5, were diluted with water to provide the appropriate test rate concentrations. A nonionic surfactant (0.25%) was added to each test solution. The test weeds include crabgrass (Digitaria sp), Chickweed (Stellaria media), Hemp Sesbania (Sesbania exaltata), Kochia (Kochia scoparia), Ivyleaf Morningglory (Ipomoea hederacea), Redroot Pigweed (Amaranthus retroflexus) and yellow nutsedge (Cyperus esculentusi).
(§4) For post-emergence testing, three disposable 3 inch square pots for each rate of application of each herbicide were filled with a soil, comprised of peat moss, vermiculite, bark ash, pine bark, limestone and a wetting agent, to which 8 to 10 seeds were planted. The pots were placed in a greenhouse and watered daily, thus allowing the seeds to germinate and the foliage to develop for 22 days, 3 months for Kochia.
as §1, with “Table 4” for “Table 3”, “from 2” for “from 1”, “to 20” for “to 22”
as §2

[3] = tested on: Hemp Sesbania (Sesbania exaltata); experiment: Example 4 post-emergence greenhouse pot test, hemp sesbania; settings: 0.25 lb ai/acre
Protocol: as §3, §4
as §1, with “Table 4” for “Table 3”, “from 2” for “from 1”, “to 20” for “to 22”
as §2

Kochia (Kochia scoparia) = experiment: Example 4 post-emergence greenhouse pot test, kochia; settings: 0.25 lb ai/acre
Protocol: as §3, §4
as §1, with “Table 4” for “Table 3”, “from 2” for “from 1”, “to 20” for “to 22”
as §2

## Cc1nn(-c2cc(NS(C)(=O)=O)c(Cl)cc2Cl)c(=O)n1C(F)F [A, N-[2,4-dichloro-5-[4-(difluoromethyl)-4,5-dihydro-3-methyl-5-oxo-1H-1,2,4-triazol-1-yl]phenyl]methanesulfonamide]
[1]; 7 DAT
  Percent Control: 64%
[1]; 14 DAT
  Percent Control: 75%
[1]; 21 DAT
  Percent Control: 76%
[1]; 28 DAT
  Percent Control: 70%
[1]; 41 DAT
  Percent Control: 75%
[2]; 1-2 leaf stage, 11 days old, 0.125 lb ai/acre, 1 DAT
  Percent Control: 50%
[2]; 1-2 leaf stage, 11 days old, 0.125 lb ai/acre, 3 DAT
  Percent Control: 60%
[2]; 1-2 leaf stage, 11 days old, 0.125 lb ai/acre, 7 DAT
  Percent Control: 50%
[2]; 1-2 leaf stage, 11 days old, 0.125 lb ai/acre, 14 DAT
  Percent Control: 40%
[2]; 1-2 leaf stage, 11 days old, 0.125 lb ai/acre, 21 DAT
  Percent Control: 30%
[2]; 1-2 leaf stage, 11 days old, 0.25 lb ai/acre, 1 DAT
  Percent Control: 60%
[2]; 1-2 leaf stage, 11 days old, 0.25 lb ai/acre, 3 DAT
  Percent Control: 70%
[2]; 1-2 leaf stage, 11 days old, 0.25 lb ai/acre, 7 DAT
  Percent Control: 50%
[2]; 1-2 leaf stage, 11 days old, 0.25 lb ai/acre, 14 DAT
  Percent Control: 20%
[2]; 1-2 leaf stage, 11 days old, 0.25 lb ai/acre, 21 DAT
  Percent Control: 5%
[2]; 1-2 leaf stage, 11 days old, 0.375 lb ai/acre, 1 DAT
  Percent Control: 50%
[2]; 1-2 leaf stage, 11 days old, 0.375 lb ai/acre, 3 DAT
  Percent Control: 70%
[2]; 1-2 leaf stage, 11 days old, 0.375 lb ai/acre, 7 DAT
  Percent Control: 50%
[2]; 1-2 leaf stage, 11 days old, 0.375 lb ai/acre, 14 DAT
  Percent Control: 20%
[2]; 1-2 leaf stage, 11 days old, 0.375 lb ai/acre, 21 DAT
  Percent Control: 10%
[2]; 3-4 leaf stage, 1-2 tillers, 14 days old, 0.125 lb ai/acre, 1 DAT
  Percent Control: 25%
[2]; 3-4 leaf stage, 1-2 tillers, 14 days old, 0.125 lb ai/acre, 3 DAT
  Percent Control: 25%
[2]; 3-4 leaf stage, 1-2 tillers, 14 days old, 0.125 lb ai/acre, 7 DAT
  Percent Control: 30%
[2]; 3-4 leaf stage, 1-2 tillers, 14 days old, 0.125 lb ai/acre, 14 DAT
  Percent Control: 10%
[2]; 3-4 leaf stage, 1-2 tillers, 14 days old, 0.125 lb ai/acre, 21 DAT
  Percent Control: 5%
[2]; 3-4 leaf stage, 1-2 tillers, 14 days old, 0.25 lb ai/acre, 1 DAT
  Percent Control: 25%
[2]; 3-4 leaf stage, 1-2 tillers, 14 days old, 0.25 lb ai/acre, 3 DAT
  Percent Control: 25%
[2]; 3-4 leaf stage, 1-2 tillers, 14 days old, 0.25 lb ai/acre, 7 DAT
  Percent Control: 30%
[2]; 3-4 leaf stage, 1-2 tillers, 14 days old, 0.25 lb ai/acre, 14 DAT
  Percent Control: 12%
[2]; 3-4 leaf stage, 1-2 tillers, 14 days old, 0.25 lb ai/acre, 21 DAT
  Percent Control: 5%
[2]; 3-4 leaf stage, 1-2 tillers, 14 days old, 0.375 lb ai/acre, 1 DAT
  Percent Control: 20%
[2]; 3-4 leaf stage, 1-2 tillers, 14 days old, 0.375 lb ai/acre, 3 DAT
  Percent Control: 20%
[2]; 3-4 leaf stage, 1-2 tillers, 14 days old, 0.375 lb ai/acre, 7 DAT
  Percent Control: 22%
[2]; 3-4 leaf stage, 1-2 tillers, 14 days old, 0.375 lb ai/acre, 14 DAT
  Percent Control: 0%
[2]; 3-4 leaf stage, 1-2 tillers, 14 days old, 0.375 lb ai/acre, 21 DAT
  Percent Control: 0%
Crabgrass (Digitaria sp); 2 DAT
  Percent Control: 10%
Crabgrass (Digitaria sp); 7 DAT
  Percent Control: 10%
Crabgrass (Digitaria sp); 14 DAT
  Percent Control: 5%
Crabgrass (Digitaria sp); 20 DAT
  Percent Control: 5%
[3]; 2 DAT
  Percent Control: 70%
[3]; 7 DAT
  Percent Control: 85%
[3]; 14 DAT
  Percent Control: 90%
[3]; 20 DAT
  Percent Control: 90%
Kochia (Kochia scoparia); 2 DAT
  Percent Control: 10%
Kochia (Kochia scoparia); 7 DAT
  Percent Control: 70%
Kochia (Kochia scoparia); 14 DAT
  Percent Control: 95%
Kochia (Kochia scoparia); 20 DAT
  Percent Control: 99%

Reference: patent publication US10897901B2, “Herbicidal composition” (FMC Corporation, priority 2007, dated 2021)
